In general, EC50 refers to the concentration giving half of the maximal effect. For orientation: CC50 means the concentration at which the toxic effect on the cells reaches its halfway point. The GI50 is the concentration at which growth is held to half of that of the control. As a reminder, the AC50 is the midpoint of the concentration-response curve, whichever way the signal moves.

The record followed here is ChEMBL document CHEMBL1201862, “PubChem BioAssay data set” (2004).

Where a name gives a salt, the structure may show the parent alone. Active and inactive are the calls of the source.

Test [1] is described as follows: cytotoxicity in HPDE-C7 cells, cell-based, fluorescence, HTS (AID 430). The conditions noted are these: Homo sapiens. The test is classed as functional.
A short description of test [2]: cytotoxicity in KRAS-transformed pancreatic duct cells, primary screen, cell-based, fluorescence, HTS (AID 431).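 Note: cell line used: HPDE-C7K.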 The class given is functional. The conditions noted are these: Homo sapiens.
Test [3] can be described thus: growth suppression of PTEN-null colon cells, dose response, cell-based, HCT116 PTEN knockout (AID 1047).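 Note: HCT116 colon tumor cells with PTEN knocked out; cells exposed to compound for 60 hours before readout; potency for loss of cell viability measured by luminescence.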 The test is classed as functional.
Test [4] in a line: growth suppression of beta-catenin-knockout colon cells, dose response, cell-based, HCT116, human colon tumor (AID 1045).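 Note: HCT116 colon tumor cells with beta catenin knocked out; cells exposed to compound for 60 hours.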 The test is classed as functional.
The target in test [5] is T1, Carboxy-terminal domain RNA polymerase II polypeptide A small phosphatase 1 (Homo sapiens, UniProt Q9GZU7).
T1 sequence (Q9GZU7 whole entry): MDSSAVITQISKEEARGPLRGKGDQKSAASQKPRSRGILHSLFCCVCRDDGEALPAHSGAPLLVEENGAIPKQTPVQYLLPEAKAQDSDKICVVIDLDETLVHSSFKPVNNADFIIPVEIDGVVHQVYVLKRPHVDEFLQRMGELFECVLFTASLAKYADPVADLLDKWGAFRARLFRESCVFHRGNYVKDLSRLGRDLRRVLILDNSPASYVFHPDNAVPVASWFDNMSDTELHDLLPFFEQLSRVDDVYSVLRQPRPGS
As to the kind of experiment: inhibitors of CTDSP1, concentration-response testing, biochemical assay, absorbance-based, actives from ultra-high-throughput screening (AID 540297). The class given is functional.

The target in test [6] is Eukaryotic translation initiation factor 4E (Mus musculus, UniProt P63073). As to the kind of experiment: eIF4E–eIF4G protein interaction inhibitors, dose response, biochemical, TR-FRET (AID 855).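 Note: potency for disrupting eIF4E binding to eIF4GI seen as loss of FRET.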 The test is classed as functional. In general terms: In TR-FRET formats the signal depends on donor and acceptor labels being close together.
Eukaryotic translation initiation factor 4E, sequence (P63073 whole entry): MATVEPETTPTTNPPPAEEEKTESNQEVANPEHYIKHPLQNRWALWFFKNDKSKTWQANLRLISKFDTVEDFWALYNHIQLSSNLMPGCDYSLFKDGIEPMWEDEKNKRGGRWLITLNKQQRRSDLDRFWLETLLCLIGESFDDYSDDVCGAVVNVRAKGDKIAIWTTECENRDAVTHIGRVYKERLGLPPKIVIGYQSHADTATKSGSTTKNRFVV
The subject of test [7] is Vero. As to the kind of experiment: cells. The test is classed as functional. The conditions noted are these: Chlorocebus sabaeus.
Test [8] deals with P388/ADR. Description: cells. The test is classed as functional. The conditions noted are these: Mus musculus.
Test [9] deals with SN12K1. Description: cells. As to conditions: Homo sapiens. The test is classed as functional.
Test [10] has as its system P388. As to the kind of experiment: cells. The class given is functional. As to conditions: Mus musculus.
The target in test [11] is Cytochrome P450 2D6 (Homo sapiens, UniProt P10635).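 Note: CYP2D6 member of a cytochrome P450 panel assay.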
Cytochrome P450 2D6, sequence (P10635 whole entry): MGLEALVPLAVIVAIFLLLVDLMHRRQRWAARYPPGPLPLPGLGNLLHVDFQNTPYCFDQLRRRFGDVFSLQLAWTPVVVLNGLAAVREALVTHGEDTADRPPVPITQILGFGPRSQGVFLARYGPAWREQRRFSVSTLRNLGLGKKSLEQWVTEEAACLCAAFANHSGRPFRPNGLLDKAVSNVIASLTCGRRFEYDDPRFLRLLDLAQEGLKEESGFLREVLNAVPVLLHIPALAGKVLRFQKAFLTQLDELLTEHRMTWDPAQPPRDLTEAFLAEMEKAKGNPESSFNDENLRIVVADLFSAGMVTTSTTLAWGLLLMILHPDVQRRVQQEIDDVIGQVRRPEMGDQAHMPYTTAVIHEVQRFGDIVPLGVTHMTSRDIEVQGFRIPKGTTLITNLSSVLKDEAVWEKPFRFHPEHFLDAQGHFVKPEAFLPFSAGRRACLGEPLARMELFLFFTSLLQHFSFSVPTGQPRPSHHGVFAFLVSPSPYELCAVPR
A short description of test [12]: HEp-2 cell cytotoxicity, dose response, cytotoxicity control for RSV inhibitor project, HTS (AID 2410). The test is classed as functional. As to conditions: human respiratory syncytial virus.
A short description of test [13]: cells.
The target in test [14] is T2, RNA-binding protein pos-1 (Caenorhabditis elegans, UniProt G5EF15).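 Note: purified POS-1 fused to maltose binding protein made in E. coli; potency of compounds blocking POS-1 binding to fluorescent RNA.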
T2 sequence (G5EF15 whole entry): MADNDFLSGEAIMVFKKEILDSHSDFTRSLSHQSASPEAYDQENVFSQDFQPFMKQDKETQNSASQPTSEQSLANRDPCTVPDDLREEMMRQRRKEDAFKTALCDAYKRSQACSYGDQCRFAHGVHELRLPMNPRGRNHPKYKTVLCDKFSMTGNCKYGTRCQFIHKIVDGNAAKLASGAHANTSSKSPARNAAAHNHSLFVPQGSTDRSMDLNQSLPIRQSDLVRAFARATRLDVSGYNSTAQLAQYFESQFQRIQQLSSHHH
As to the kind of experiment: inhibitors of POS-1/mex-3 RNA binding, dose response, biochemical, fluorescence polarization (AID 1964). (In fluorescence polarisation assays a small probe gives low polarisation when free and higher when bound to something large.)

Test [15] addresses T3, Zinc finger protein mex-5 (Caenorhabditis elegans, UniProt Q9XUB2).
T3 sequence (Q9XUB2 whole entry): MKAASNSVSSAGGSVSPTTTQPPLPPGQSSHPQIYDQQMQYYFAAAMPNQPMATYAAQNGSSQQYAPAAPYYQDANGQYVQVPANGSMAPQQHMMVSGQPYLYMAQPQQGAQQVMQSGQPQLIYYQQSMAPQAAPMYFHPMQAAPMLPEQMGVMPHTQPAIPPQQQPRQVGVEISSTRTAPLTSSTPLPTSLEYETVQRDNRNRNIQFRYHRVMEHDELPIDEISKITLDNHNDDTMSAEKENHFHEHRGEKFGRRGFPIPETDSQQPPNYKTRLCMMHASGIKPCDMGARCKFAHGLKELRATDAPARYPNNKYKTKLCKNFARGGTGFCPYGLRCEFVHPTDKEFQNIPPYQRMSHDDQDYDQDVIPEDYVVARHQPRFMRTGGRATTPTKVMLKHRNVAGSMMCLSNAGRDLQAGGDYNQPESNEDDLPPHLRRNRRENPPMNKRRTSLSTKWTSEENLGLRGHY
Description: MEX-5/TCR-2 RNA interaction inhibitors, dose response, biochemical, C. elegans, fluorescence polarization (AID 1960).

Test [16] is described as follows: Luminescence Cell-Based Dose Retest to Confirm Inhibitors of Cancer Stem Cells. [Related pubchem assays (depositor defined):AID2717, AID2721]. The test is classed as functional. As to conditions: Homo sapiens.
In test [17] the target is T4, Polyadenylate-binding protein 1 (Homo sapiens, UniProt P11940). As to the kind of experiment: PABP1 MLLE–PAM2 interaction inhibitors, dose response, miRNA deadenylation inhibitor project, biochemical, fluorescence polarization, Cy5-PAM2 peptide, secondary (AID 602260). The test is classed as functional. The conditions noted are these: read-out: IC50_Mean.
T4 sequence (P11940 whole entry): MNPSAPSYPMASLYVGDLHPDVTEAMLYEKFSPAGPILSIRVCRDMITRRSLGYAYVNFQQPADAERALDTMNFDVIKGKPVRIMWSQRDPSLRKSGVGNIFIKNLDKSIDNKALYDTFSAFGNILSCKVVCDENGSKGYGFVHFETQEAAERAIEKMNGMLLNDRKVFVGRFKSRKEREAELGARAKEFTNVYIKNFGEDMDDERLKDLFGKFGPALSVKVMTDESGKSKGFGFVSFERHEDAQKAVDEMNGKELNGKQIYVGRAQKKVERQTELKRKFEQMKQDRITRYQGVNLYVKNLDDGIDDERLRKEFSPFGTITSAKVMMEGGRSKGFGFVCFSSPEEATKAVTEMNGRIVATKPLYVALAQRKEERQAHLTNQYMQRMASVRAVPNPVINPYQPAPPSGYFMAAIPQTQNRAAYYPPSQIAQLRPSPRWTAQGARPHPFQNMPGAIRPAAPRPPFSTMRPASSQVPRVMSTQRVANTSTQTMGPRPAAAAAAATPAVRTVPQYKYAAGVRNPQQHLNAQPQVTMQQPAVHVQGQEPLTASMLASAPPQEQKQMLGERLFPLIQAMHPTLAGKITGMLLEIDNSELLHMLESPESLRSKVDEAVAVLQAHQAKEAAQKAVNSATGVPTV
Test [18] has as its target T4, Polyadenylate-binding protein 1. Description: PABP1 MLLE–PAM2 binding inhibitor potency, dose response, biochemical, fluorescence polarization, FITC-PAM2 peptide (AID 602259). The class given is functional. As to conditions: read-out: IC50_Mean.
Test [19] deals with T5, DNA repair protein RAD52 homolog (Homo sapiens, UniProt P43351).
T5 sequence (P43351 whole entry): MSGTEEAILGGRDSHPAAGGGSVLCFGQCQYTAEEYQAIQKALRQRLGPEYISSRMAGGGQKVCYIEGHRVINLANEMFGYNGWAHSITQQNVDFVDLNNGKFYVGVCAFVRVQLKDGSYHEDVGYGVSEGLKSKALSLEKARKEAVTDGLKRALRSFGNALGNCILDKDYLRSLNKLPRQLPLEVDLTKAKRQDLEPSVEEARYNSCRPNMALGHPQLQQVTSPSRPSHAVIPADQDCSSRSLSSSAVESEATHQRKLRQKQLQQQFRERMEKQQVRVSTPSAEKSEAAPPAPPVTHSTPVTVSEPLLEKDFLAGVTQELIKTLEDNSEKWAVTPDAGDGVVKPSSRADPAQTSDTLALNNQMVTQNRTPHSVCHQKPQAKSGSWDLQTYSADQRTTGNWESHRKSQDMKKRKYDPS
The test is classed as functional, biochemical.

The nature of test [20]: inhibitors of intracellular T. cruzi replication, confirmation, NIH3T3 host cells, beta-gal luminescence (AID 2044).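 Note: intracellular parasites grown in NIH/3T3 mouse fibroblasts as host cells; luminescent beta-galactosidase reporter signal from transgenic T. cruzi replicating inside host cells; inhibitors lower the luminescence signal.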 The class given is functional, cell-based.
Test [21] can be described thus: cytotoxicity toward NIH3T3 fibroblasts, dose response, counter-screen, cell-based, ATP luminescence, mouse fibroblasts (AID 2010).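 Note: cells exposed to compound for about 90 hours before reading.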 The class given is functional. In general terms: Counterscreens check selectivity or assay interference.

Consider `CC1(C)Cc2c(C#N)c(N3CCN(C(=O)c4ccco4)CC3)nc(Cc3ccccc3)c2CO1`, for which the half-maximal effective concentration (EC50) in test [1] is 17.2 µM (active); in test [2], 11.8 µM (active); in [3] it was 23.3 µM (active); in [4], 26 µM (active).
In the case of `O=C1NC(=S)NC(=O)C1=Cc1ccc(OCC(=O)N2CCCC2)cc1`, the IC50 in test [5] was 9 µM (active).
On the same count and under the same terms, with `CNc1[nH]c(=O)[nH]c(=O)c1N=Nc1cc(Cl)ccc1Cl` the figure was 11.6 µM (active).
For `COc1ccccc1N1CCN(S(=O)(=O)Cc2ccccc2Cl)CC1`, in [6], the IC50 was > 64 µM (inactive).
Same read-out and setting: under `CCOC(=O)C(C)Sc1ccc2nnc(-c3ccc(F)cc3)n2n1` (configuration not stated) stands > 64 µM (inactive).
Consider `CCCNC(=O)N1c2ccccc2Sc2ccccc21`, for which the CC50 in test [7] was > 25 µM (active).
On to `Cc1ccc(S(=O)(=O)N2CCN(C(=O)/C=C/c3ccco3)CC2)cc1`, for which the IC50 in test [5] was 10.2 µM (active).
With `Cc1c2cc[n+](CCN3CCCCC3)cc2c(C)c2c1[nH]c1ccc(O)cc12`, the GI50 in [8] is 1.37 µM (inactive); in [9], 1.5 µM (inactive); in test [10], 0.0111 µM (active). In addition, the AC50 in test [11] is 5.01 µM (inconclusive).
In the case of `CN1CCN(CC(O)(c2ccc(Cl)cc2)c2ccc(Cl)cc2)CC1`, the half-maximal cytotoxic concentration (CC50) in [7] is > 25 µM (active).
As to `O=[N+]([O-])c1ccc(Cl)c(S(=O)(=O)Nc2cccc(-c3ccc(N4CCOCC4)nn3)c2)c1`, the CC50 in test [12] was 37.3 µM (active). In test [13], the IC50 is 32.5 µM (active).
Take `O=C(CCCOc1ccc(Cl)cc1Cl)Nc1ccccc1C(=O)O`: the CC50 in test [12] was 9.45 µM (active). The IC50 in [13] was 5.66 µM (active).
With `CC1CCN(C(=O)CCN2C(=O)/C(=C/c3cccs3)SC2=S)CC1`, the EC50 in [14] and in test [15] was > 300 µM (not active) in each case. The CC50 in test [7] was 17.3 µM (active).
For the compound `O=C(Nc1ccc(CN2CCOCC2)cc1)c1ccc(-c2ccc(Cl)cc2Cl)o1`, in test [16], the concentration at half-maximal activity (AC50) is 5.22 µM (active). Moreover, the IC50 in test [6] was 50 µM (inactive).
Take `Cc1cc(-c2ccc(C(C)C)c(S(=O)(=O)NCc3ccco3)c2)on1`: the half-maximal cytotoxic concentration (CC50) in test [7] is 6.78 µM (active).
As for `Nc1c(S(=O)(=O)O)cc2cc(S(=O)(=O)O)ccc2c1/N=N/c1ccc(-c2ccc(/N=N/c3c(N)c(S(=O)(=O)O)cc4cc(S(=O)(=O)O)ccc34)c(S(=O)(=O)O)c2)cc1`, the GI50 was > 100 µM (inactive) in test [8], > 100 µM (inactive) in [9] and > 79.6 µM (inactive) in test [10].
Consider `Cc1ccc(-c2ccc(/C=N/O)o2)cc1[N+](=O)[O-]`, for which the 50% cytotoxic concentration (CC50) in test [12] was 36.3 µM (active). Moreover, the IC50 in test [13] is 33.5 µM (active).
For the compound `Cc1nnc(SCC2=C(C(=O)O)N3C(=O)C(NC(=O)Cn4nc(C(F)F)cc4C)C3SC2)s1` (configuration not stated), the IC50 in [5] is 7.83 µM (active).
As to `Cc1c(CCC(=O)O)c(=O)oc2cc(OCc3ccc(Br)cc3)ccc12`, the IC50 in test [5] was 7.23 µM (active).
Turning to `NCCc1cc(O)c(O)cc1O` [OXIDOPAMINE HYDROCHLORIDE], the IC50 in test [17] and in test [18] was > 66 µM (inactive) throughout. For the same compound, the half-maximal activity concentration (AC50) in test [19] was 4.12 µM (active).
Regarding `Cc1cccc2sc(NC(=O)CN(C)S(=O)(=O)c3ccc(Br)s3)nc12`, the EC50 in test [1] and in test [2] was 12.2 µM (active) in each case.
For the compound `Cc1cc(N2CCCC2)nc2ccc(NC(S)=NCCCN3CCC(C)CC3)cc12`, the EC50 is 2.03 µM (active) in test [20] and 14.2 µM (active) in [21]. For the same compound, the CC50 in test [7] is > 25 µM (active). Besides, in test [19], the half-maximal activity concentration (AC50) is 2.27 µM (active).
Turning to `CCC(=O)NC(=S)Nc1ccc(NC(=O)c2ccc([N+](=O)[O-])cc2)cc1`, the IC50 in test [6] was > 64 µM (inactive).
